In patent US9700516B2, “Compositions and methods for reducing overdose” (priority 2014, dated 2017):

Test: Effect of alkalinizing agents on the pH of a solution of 0.1 N HCl with a starting pH of 2.0
Type: physicochemical
Procedure: Various alkalinizing agents were added to a solution of 0.1 N HCl with a starting pH of 2.0 and the pH of the solution was tested at different time points.

## Cl.N=C(N)NCCC[C@H](N)C(=O)O [Arginine HCl, L-arginine-HCl]
100 mg in 200 ml, 10 min
  pH: 2.20
100 mg in 200 ml, 20 min
  pH: 2.20
100 mg in 200 ml, 30 min
  pH: 2.20
100 mg in 200 ml, 40 min
  pH: 2.20
100 mg in 200 ml, 50 min
  pH: 2.20
100 mg in 200 ml, 60 min
  pH: 2.20

## O=C([O-])[O-].[Mg+2] [Magnesium Carbonate, magnesium carbonate]
80 mg in 200 ml, 0 min
  pH: 2.73
80 mg in 200 ml, 1 min
  pH: 4.78
80 mg in 200 ml, 2 min
  pH: 6.09
80 mg in 200 ml, 3 min
  pH: 6.57
80 mg in 200 ml, 4 min
  pH: 7.44
80 mg in 200 ml, 5 min
  pH: 8.64
80 mg in 200 ml, 6 min
  pH: 8.92
80 mg in 200 ml, 7 min
  pH: 9.03
80 mg in 200 ml, 8 min
  pH: 9.09
80 mg in 200 ml, 9 min
  pH: 9.13
80 mg in 200 ml, 10 min
  pH: 9.17
80 mg in 200 ml, 20 min
  pH: 9.26
80 mg in 200 ml, 30 min
  pH: 9.26
80 mg in 200 ml, 30 minute timecourse
  pH of the solution: above 9
100 mg in 200 ml, 10 min
  pH: 3.05
100 mg in 200 ml, 20 min
  pH: 3.05
100 mg in 200 ml, 30 min
  pH: 3.05
100 mg in 200 ml, 40 min
  pH: 3.05
100 mg in 200 ml, 50 min
  pH: 3.05
100 mg in 200 ml, 60 min
  pH: 3.05

## CNC[C@H](O)[C@@H](O)[C@H](O)[C@H](O)CO [Meglumine, meglumine]
120 mg in 200 ml, 10 min
  pH: 2.16
120 mg in 200 ml, 20 min
  pH: 2.16
120 mg in 200 ml, 30 min
  pH: 2.16
120 mg in 200 ml, 40 min
  pH: 2.16
120 mg in 200 ml, 50 min
  pH: 2.16
120 mg in 200 ml, 60 min
  pH: 2.16

## [O]=[Mg] [MgO, magnesium oxide]
40 mg per 320 mL, 0 min
  pH: 2.01
40 mg per 320 mL, 1 min
  pH: 2.01
40 mg per 320 mL, 2 min
  pH: 2.03
40 mg per 320 mL, 3 min
  pH: 2.08
40 mg per 320 mL, 4 min
  pH: 2.10
40 mg per 320 mL, 5 min
  pH: 2.13
40 mg per 320 mL, 6 min
  pH: 2.16
40 mg per 320 mL, 7 min
  pH: 2.19
40 mg per 320 mL, 8 min
  pH: 2.22
40 mg per 320 mL, 9 min
  pH: 2.23
40 mg per 320 mL, 10 min
  pH: 2.24
40 mg per 320 mL, 20 min
  pH: 2.30
40 mg per 320 mL, 30 min
  pH: 2.33
40 mg per 320 mL, 40 min
  pH: 2.39
40 mg per 320 mL, 50 min
  pH: 2.34
40 mg per 320 mL, 60 min
  pH: 2.34
80 mg per 320 mL, 0 min
  pH: 1.99
80 mg per 320 mL, 1 min
  pH: 2.00
80 mg per 320 mL, 2 min
  pH: 2.02
80 mg per 320 mL, 3 min
  pH: 2.05
80 mg per 320 mL, 4 min
  pH: 2.06
80 mg per 320 mL, 5 min
  pH: 2.08
80 mg per 320 mL, 6 min
  pH: 2.10
80 mg per 320 mL, 7 min
  pH: 2.12
80 mg per 320 mL, 8 min
  pH: 2.13
80 mg per 320 mL, 9 min
  pH: 2.15
80 mg per 320 mL, 10 min
  pH: 2.17
80 mg per 320 mL, 20 min
  pH: 2.30
80 mg per 320 mL, 30 min
  pH: 2.40
80 mg per 320 mL, 40 min
  pH: 2.48
80 mg per 320 mL, 50 min
  pH: 2.55
80 mg per 320 mL, 60 min
  pH: 2.63
80 mg powder/200 ml, 4 min
  pH: 6.21
80 mg powder/200 ml, 5 min
  pH: 6.67
80 mg powder/200 ml, 6 min
  pH: 7.22
80 mg powder/200 ml, 7 min
  pH: 7.98
80 mg powder/200 ml, 8 min
  pH: 8.42
80 mg powder/200 ml, 9 min
  pH: 8.44
80 mg powder/200 ml, 10 min
  pH: 10.13
80 mg powder/200 ml, 20 min
  pH: 10.13
80 mg powder/200 ml, 30 min
  pH: 8.66
80 mg powder/200 ml, 40 min
  pH: 10.13
80 mg, Granular/200 ml, 4 min
  pH: 2.75
80 mg, Granular/200 ml, 5 min
  pH: 3.37
80 mg, Granular/200 ml, 6 min
  pH: 5.50
80 mg, Granular/200 ml, 7 min
  pH: 6.04
80 mg, Granular/200 ml, 8 min
  pH: 6.38
80 mg, Granular/200 ml, 9 min
  pH: 6.74
80 mg, Granular/200 ml, 10 min
  pH: 7.05
80 mg, Granular/200 ml, 20 min
  pH: 7.50
80 mg, Granular/200 ml, 30 min
  pH: 9.14
100 mg powder/200 ml, 4 min
  pH: 2.37
100 mg powder/200 ml, 5 min
  pH: 2.37
100 mg powder/200 ml, 6 min
  pH: 3.52
100 mg powder/200 ml, 7 min
  pH: 3.52
100 mg powder/200 ml, 8 min
  pH: 3.52
100 mg powder/200 ml, 9 min
  pH: 3.52
100 mg powder/200 ml, 10 min
  pH: 3.52
100 mg powder/200 ml, 20 min
  pH: 5.00
100 mg powder/200 ml, 30 min
  pH: 6.50
100 mg powder/200 ml, 40 min
  pH: 8.09
120 mg powder/200 ml, 4 min
  pH: 6.97
120 mg powder/200 ml, 5 min
  pH: 8.21
120 mg powder/200 ml, 6 min
  pH: 8.21
120 mg powder/200 ml, 7 min
  pH: 8.21
120 mg powder/200 ml, 8 min
  pH: 8.21
120 mg powder/200 ml, 9 min
  pH: 8.21
120 mg powder/200 ml, 10 min
  pH: 8.21
120 mg powder/200 ml, 20 min
  pH: 8.21
120 mg powder/200 ml, 30 min
  pH: 8.21
160 mg per 320 mL, 0 min
  pH: 1.99
160 mg per 320 mL, 1 min
  pH: 2.05
160 mg per 320 mL, 2 min
  pH: 2.14
160 mg per 320 mL, 3 min
  pH: 2.24
160 mg per 320 mL, 4 min
  pH: 2.35
160 mg per 320 mL, 5 min
  pH: 2.47
160 mg per 320 mL, 6 min
  pH: 2.60
160 mg per 320 mL, 7 min
  pH: 2.71
160 mg per 320 mL, 8 min
  pH: 2.83
160 mg per 320 mL, 9 min
  pH: 2.95
160 mg per 320 mL, 10 min
  pH: 3.07
160 mg per 320 mL, 20 min
  pH: 8.16
160 mg per 320 mL, 30 min
  pH: 9.30
160 mg per 320 mL, 40 min
  pH: 9.54
160 mg per 500 mL, 0 min
  pH: 1.98
160 mg per 500 mL, 1 min
  pH: 2.00
160 mg per 500 mL, 2 min
  pH: 2.02
160 mg per 500 mL, 3 min
  pH: 2.05
160 mg per 500 mL, 4 min
  pH: 2.07
160 mg per 500 mL, 5 min
  pH: 2.12
160 mg per 500 mL, 6 min
  pH: 2.15
160 mg per 500 mL, 7 min
  pH: 2.18
160 mg per 500 mL, 8 min
  pH: 2.22
160 mg per 500 mL, 9 min
  pH: 2.24
160 mg per 500 mL, 10 min
  pH: 2.27
160 mg per 500 mL, 20 min
  pH: 2.54
160 mg per 500 mL, 30 min
  pH: 2.62
160 mg per 500 mL, 40 min
  pH: 2.74
160 mg per 500 mL, 50 min
  pH: 2.86
160 mg per 500 mL, 60 min
  pH: 2.96
80-120 mg/200 ml powder and 80 mg granular/200 ml
  effect on pH of the solution: rapidly raise the pH of the solution to neutral or higher

## CC(=O)[O-].[Na+] [Sodium Acetate, sodium acetate]
200 mg in 200 ml, 10 min
  pH: 4.73
200 mg in 200 ml, 20 min
  pH: 4.96
200 mg in 200 ml, 30 min
  pH: 5.08
200 mg in 200 ml, 40 min
  pH: 5.21
200 mg in 200 ml, 50 min
  pH: 5.34
200 mg in 200 ml, 60 min
  pH: 5.34

## O=C([O-])CC(O)(CC(=O)[O-])C(=O)[O-].[Na+].[Na+].[Na+] [Sodium Citrate, sodium citrate]
930 mg in 200 ml, 10 min
  pH: 5.53
930 mg in 200 ml, 20 min
  pH: 5.53
930 mg in 200 ml, 30 min
  pH: 5.53
930 mg in 200 ml, 40 min
  pH: 5.53
930 mg in 200 ml, 50 min
  pH: 5.53
930 mg in 200 ml, 60 min
  pH: 5.53
